According to paper PMC7462494, “Novel Bi-heterocycles as Potent Inhibitors of Urease and Less Cytotoxic Agents: 3-({5-((2-Amino-1,3-thiazol-4-yl)methyl)-1,3,4-oxadiazol-2-yl}sulfanyl)-N-(un/substituted-phenyl)propanamides” (Iranian Journal of Pharmaceutical Research : IJPR, 2020):
Like-named read-outs stand apart in the source and are kept apart here.

Experiments:
[1] = target: urease (Canavalia ensiformis, UniProt P07374); assay: Urease inhibition assay (customized Berthelot assay); format: biochemical; settings: for inhibition at 500 µM: read-out: Urease Inhibition, Inhibition (%)
Protocol: This enzyme assay is the customized form of the commonly known Berthelot assay ([23], [24]). […] The contents were pre-incubated at 37 °C for 5 min. 40 µL of urea stock solution (20 mM) was added to each well with incubation for 10 min at 37 °C. It is followed by the addition of 115 µL phenol hypochlorite reagents (freshly prepared by mixing 45 µL phenol with 70 µL of alkali) per well. For color development, incubation was carried out for further 10 min at 37 °C. The absorbance was measured at 625 nm. The percentage enzyme inhibition and IC50 values were calculated using the following formula:
inhibition%=Control-test/Control×100
Where, Control is the total enzyme activity without inhibitor and Test is the activity in the presence of test compound. IC50 values were calculated using the EZ–Fit Enzyme kinetics software (Perrella Scientific Inc. Amherst, US).
Statistical analysis was performed by Microsoft Excel 2010 for all the thrice measured values and the results are presented as mean ± SEM.

[2] = Hemolytic activity (cytotoxicity through hemolysis); format: cell-based; settings: bovine, red blood cell (erythrocyte) suspension, pH 7.4, 20 µL compound solution (10 mg/mL) in 180 µL RBCs suspension, room temperature, PBS negative control, Triton positive control
Description: The erythrocytes separated diluted in phosphate buffer saline of pH 7.4 and a suspension was made.

Chain of urease (P07374 whole entry, looked up): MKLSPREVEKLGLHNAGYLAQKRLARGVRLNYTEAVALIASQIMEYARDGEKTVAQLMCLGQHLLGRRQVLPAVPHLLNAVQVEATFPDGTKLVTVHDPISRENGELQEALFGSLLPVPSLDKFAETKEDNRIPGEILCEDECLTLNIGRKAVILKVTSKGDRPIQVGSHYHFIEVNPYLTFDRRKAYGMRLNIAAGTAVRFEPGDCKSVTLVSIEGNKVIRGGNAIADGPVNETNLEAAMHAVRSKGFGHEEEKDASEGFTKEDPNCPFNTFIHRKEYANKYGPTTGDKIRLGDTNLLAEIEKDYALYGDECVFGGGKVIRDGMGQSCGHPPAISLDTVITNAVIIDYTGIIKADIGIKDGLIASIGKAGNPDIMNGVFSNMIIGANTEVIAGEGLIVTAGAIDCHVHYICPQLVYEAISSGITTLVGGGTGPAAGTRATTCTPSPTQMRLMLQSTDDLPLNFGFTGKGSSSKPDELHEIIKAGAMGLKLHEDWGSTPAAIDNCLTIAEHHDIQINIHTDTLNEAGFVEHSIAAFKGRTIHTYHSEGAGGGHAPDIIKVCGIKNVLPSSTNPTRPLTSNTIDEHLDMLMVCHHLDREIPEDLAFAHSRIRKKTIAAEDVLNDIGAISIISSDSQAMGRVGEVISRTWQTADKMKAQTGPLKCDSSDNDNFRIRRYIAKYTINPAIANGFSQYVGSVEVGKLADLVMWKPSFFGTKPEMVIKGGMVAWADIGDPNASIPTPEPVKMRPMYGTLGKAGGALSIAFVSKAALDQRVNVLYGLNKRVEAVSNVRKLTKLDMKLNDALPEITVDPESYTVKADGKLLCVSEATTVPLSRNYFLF

Row | Structure (SMILES) | IC50 [1] | inhibition at 500 µM [1] | melting point | hemolysis at 30 min, 1 mg/mL [2] | Urease Inhibition, Inhibition (%) ([1]; at 0.5 mM, mean ± SEM, n = 3) | IC50 ([1]; mean ± SEM, n = 3, EZ-Fit Enzyme kinetics software, read-out: Urease Inhibition, IC50)
1 | Cc1ccc(NC(=O)CCSc2nnc(Cc3csc(N)n3)o2)cc1C [Compound 7h, 3-({5-[(2-Amino-1,3-thiazol-4-yl)methyl]-1,3,4-oxadiazol-2-yl}sulfanyl)-N-(3,4-dimethylphenyl)propanamide] | 2560 ± 20 nM | 97.28 ± 0.02% | 177 to 178 °C | 5.79% | – | –
2 | Nc1nc(Cc2nnc(SCCC(=O)Nc3ccccc3)o2)cs1 [Compound 7a, 3-({5-[(2-Amino-1,3-thiazol-4-yl)methyl]-1,3,4-oxadiazol-2-yl}sulfanyl)-N-phenylpropanamide] | 2450 ± 40 nM | 98.24 ± 0.08% | 190 to 191 °C | 11.5% | – | –
3 | Cc1ccc(NC(=O)CCSc2nnc(Cc3csc(N)n3)o2)cc1 [Compound 7d, 3-({5-[(2-Amino-1,3-thiazol-4-yl)methyl]-1,3,4-oxadiazol-2-yl}sulfanyl)-N-(4-methylphenyl)propanamide] | 1750 ± 10 nM | 98.13 ± 0.02% | – | 7.16% | – | –
4 | Cc1cc(C)cc(NC(=O)CCSc2nnc(Cc3csc(N)n3)o2)c1 [Compound 7i, 3-({5-[(2-Amino-1,3-thiazol-4-yl)methyl]-1,3,4-oxadiazol-2-yl}sulfanyl)-N-(3,5-dimethylphenyl)propanamide] | 3620 ± 10 nM | 97.31 ± 0.08% | – | 5.26% | – | –
5 | Cc1ccccc1NC(=O)CCSc1nnc(Cc2csc(N)n2)o1 [Compound 7b, 3-({5-[(2-Amino-1,3-thiazol-4-yl)methyl)-1,3,4-oxadiazol-2-yl}sulfanyl)-N-(2-methylphenyl)propanamide] | 2640 ± 30 nM | 96.42 ± 0.02% | – | 7.05% | – | –
6 | CCc1ccccc1NC(=O)CCSc1nnc(Cc2csc(N)n2)o1 [Compound 7j, 3-({5-[(2-Amino-1,3-thiazol-4-yl)methyl]-1,3,4-oxadiazol-2-yl}sulfanyl)-N-(2-ethylphenyl)propanamide] | 2130 ± 10 nM | 98.12 ± 0.03% | 198 to 199 °C | 6.63% | – | –
7 | Cc1ccc(NC(=O)CCSc2nnc(Cc3csc(N)n3)o2)c(C)c1 [Compound 7e, 3-({5-[(2-Amino-1,3-thiazol-4-yl)methyl]-1,3,4-oxadiazol-2-yl}sulfanyl)-N-(2,4-dimethylphenyl)propanamide] | 1240 ± 10 nM | 98.19 ± 0.09% | – | 6.74% | – | –
8 | NC(N)=S [Thiourea, reference compound] | – | – | – | – | Thiourea 98.12 ± 0.18% | 21100 nM
9 | Cc1cccc(C)c1NC(=O)CCSc1nnc(Cc2csc(N)n2)o1 [Compound 7g, 3-({5-[(2-Amino-1,3-thiazol-4-yl)methyl]-1,3,4-oxadiazol-2-yl}sulfanyl)-N-(2,6-dimethylphenyl)propanamide] | 2630 ± 30 nM | 98.52 ± 0.06% | 149 to 150 °C | 7.37% | – | –
10 | Cc1ccc(C)c(NC(=O)CCSc2nnc(Cc3csc(N)n3)o2)c1 [Compound 7f, 3-({5-[(2-Amino-1,3-thiazol-4-yl)methyl]-1,3,4-oxadiazol-2-yl}sulfanyl)-N-(2,5-dimethylphenyl)propanamide] | 5180 ± 60 nM | 96.26 ± 0.03% | – | 6.42% | – | –
11 | CCc1ccc(NC(=O)CCSc2nnc(Cc3csc(N)n3)o2)cc1 [Compound 7k, 3-({5-[(2-amino-1,3-thiazol-4-yl)methyl]-1,3,4-oxadiazol-2-yl}sulfanyl)-N-(4-ethylphenyl)propanamide] | 2850 ± 50 nM | 97.43 ± 0.07% | – | 7.16% | – | –
12 | CCOc1ccc(NC(=O)CCSc2nnc(Cc3csc(N)n3)o2)cc1 [Compound 7l, 3-({5-[(2-Amino-1,3-thiazol-4-yl)methyl]-1,3,4-oxadiazol-2-yl}sulfanyl)-N-(4-ethoxyphenyl)propanamide] | 2170 ± 20 nM | 97.25 ± 0.04% | – | 8.11% | – | –
13 | Cc1cccc(NC(=O)CCSc2nnc(Cc3csc(N)n3)o2)c1 [Compound 7c, 3-({5-[(2-Amino-1,3-thiazol-4-yl)methyl]-1,3,4-oxadiazol-2-yl}sulfanyl)-N-(3-methylphenyl)propanamide] | 1320 ± 20 nM | 98.52 ± 0.05% | – | 5.16% | – | –
14 | CC(C)(C)CC(C)(C)c1ccc(OCCO)cc1 [Triton-X, reference compound] | – | – | – | 89% | – | –
